Test results as given in the supplement of paper PMC11208160.

Assay: recombinant barcode read abundance after kanamycin selection (control-corrected) (log10(CPM+1)); higher = more efficient recombination; sequences stand for … in AGTGCAGAGAAAATCGGCCAGTTTTCTCTGCCTGCAGTCCGCATGCCGT…AGATTTATGCAGCGGACTGCCTTTCTCCCAAAGTGATAAACCGGACAGTATCATGGACCGGTTTTCCCGGTAATCCGTATTTGCAAGGTTGGTTTCACT; site = the 11-nt target
Outline: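 Pooled E. coli screen pairing targets with IS621 bridge RNA target-binding loops. Each oligo (promoter, target, barcode, J23119-driven first 104 bridge RNA bases) was Gibson-cloned into a vector with the remaining 73 bp and T7-inducible recombinase, then co-electroporated with a donor plasmid. Two replicates each were plated on chloramphenicol/ampicillin LB agar (control) or chloramphenicol/ampicillin/kanamycin with 0.1 mM IPTG. Recombination efficiency is recombinant-junction barcode counts as CPM, averaged, control-corrected, reported as log10(CPM+1).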
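Note: IS621 recombinase and bridge RNA in Escherichia coli cells.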

| Sequence | recombinant barcode read abundance (log10) |
| --- | --- |
| ATCAACCCTTGGGTTCTAACCTGTTGCCA (site ATCAACCCTTG) | 1.04 |
| ATCAACCCTTGGGTTCTAACCTGTTGCCA (site TCGTCTACTGA) | 0.375 |
| ATCACAGCTTGGGTTCTAACCTGTTGCCT (site ATCAAAGCTAG) | 0.136 |
| ATCACAGCTTGGGTTCTAACCTGTTGCCT (site ATCACAGCTAG) | 0.736 |
| ATCACGCCTTGGGTTCTAACCTGTTGCCT (site ACCACGCCTAG) | 0.128 |
| ATCACGCCTTGGGTTCTAACCTGTTGCCT (site ATCACGCCTAG) | 0.544 |
| ATCAGGTCTTGGGTTCTAACCTGTTGCCT (site AACAGGTCTAG) | 0.299 |
| ATCAGGTCTTGGGTTCTAACCTGTTGCCT (site ACCAGGTCTAG) | 0.18 |
| ATCAGGTCTTGGGTTCTAACCTGTTGCCT (site AGCAGGTCTAG) | 0.107 |
| ATCAGGTCTTGGGTTCTAACCTGTTGCCT (site ATCAGGTCTAG) | 0.431 |
| ATCAGTACTTGGGTTCTAACCTGTTGCCT (site ATCAGTACTAG) | 0.307 |
| ATCAGTACTTGGGTTCTAACCTGTTGCCT (site CTGAGTACTAG) | 0.242 |
| ATCCAGGCTTGGGTTCTAACCTGTTGCGG (site ATCCAGGCTCC) | 2.07 |
| ATCCAGGCTTGGGTTCTAACCTGTTGCGG (site ATTCAGACTCC) | 0.00907 |
| ATCGGAGCTTGGGTTCTAACCTGTTGCTG (site ATCGGAGCTCA) | 0.991 |
| ATCGGAGCTTGGGTTCTAACCTGTTGCTG (site ATCGGAGCTCC) | 0.67 |
| ATCGGAGCTTGGGTTCTAACCTGTTGCTG (site ATCGGAGCTCG) | 0.455 |
| ATCGGAGCTTGGGTTCTAACCTGTTGCTG (site ATCGGAGCTCT) | 0.627 |
| ATCGGATCTTGGGTTCTAACCTGTTGCCG (site ATCGGATCTCG) | 0.782 |
| ATCGGATCTTGGGTTCTAACCTGTTGCCG (site CATAACCCTAT) | 0.349 |
| ATCGGGCCTTGGGTTCTAACCTGTTGCCT (site ATCGGGCCTAG) | 0.47 |
| ATCGGGCCTTGGGTTCTAACCTGTTGCCT (site CTCGGGCCTAG) | 0.0724 |

| Sequence | recombinant barcode read abundance (log10) |
| --- | --- |
| ATCGGGCCTTGGGTTCTAACCTGTTGCCT (site GTCGGGCCTAG) | 0.582 |
| ATCGGGCCTTGGGTTCTAACCTGTTGCCT (site TTCGGGCCTAG) | 0.0744 |
| ATCGTAGCTTGGGTTCTAACCTGTTGCCA (site ACCCTAGCTTG) | 0.497 |
| ATCGTAGCTTGGGTTCTAACCTGTTGCCA (site ATCGTAGCTTG) | 0.228 |
| ATCGTTCCTTGGGTTCTAACCTGTTGCGT (site ACCGGTCCTAC) | 0.0508 |
| ATCGTTCCTTGGGTTCTAACCTGTTGCGT (site ATCGTTCCTAC) | 0.411 |
| ATCTTACCTTGGGTTCTAACCTGTTGCCT (site ATCTTAACTAG) | 0.069 |
| ATCTTACCTTGGGTTCTAACCTGTTGCCT (site ATCTTACCTAG) | 0.681 |
| ATCTTACCTTGGGTTCTAACCTGTTGCCT (site ATCTTAGCTAG) | 0.0332 |
| ATCTTACCTTGGGTTCTAACCTGTTGCCT (site ATCTTATCTAG) | 0.109 |
| ATGAAGCCTTGGGTTCTAACCTGTTGCCT (site ATGAAGCCTAG) | 1.87 |
| ATGAAGCCTTGGGTTCTAACCTGTTGCCT (site CTGAAGCCTAG) | 0.053 |
| ATGAAGCCTTGGGTTCTAACCTGTTGCCT (site GTGAAGCCTAG) | 0.177 |
| ATGAAGCCTTGGGTTCTAACCTGTTGCCT (site TTGAAGCCTAG) | 0.503 |
| ATGAGCTCTTGGGTTCTAACCTGTTGCTA (site ATGAGCTCTTA) | 1.12 |
| ATGAGCTCTTGGGTTCTAACCTGTTGCTA (site ATGAGGTCTGA) | 0.0495 |
| ATGAGTCCTTGGGTTCTAACCTGTTGCAA (site ATGAGTCCTTT) | 1.25 |
| ATGAGTCCTTGGGTTCTAACCTGTTGCAA (site TGAGAGACTAC) | 0.0172 |
| ATGATACCTTGGGTTCTAACCTGTTGCCT (site AAGATACCTAG) | 0.157 |
| ATGATACCTTGGGTTCTAACCTGTTGCCT (site ATGATACCTAG) | 1.84 |
| ATGCAAACTTGGGTTCTAACCTGTTGCCT (site ATGCAAACTAG) | 1.31 |
| ATGCAAACTTGGGTTCTAACCTGTTGCCT (site ATGCAACCTAG) | 0.0759 |

| Sequence | recombinant barcode read abundance (log10) |
| --- | --- |
| ATGCAAACTTGGGTTCTAACCTGTTGCCT (site ATGCAAGCTAG) | 0.653 |
| ATGCAAACTTGGGTTCTAACCTGTTGCCT (site ATGCAATCTAG) | 0.151 |
| ATGCACGCTTGGGTTCTAACCTGTTGCCT (site ATGCACGCTAG) | 1.81 |
| ATGCACGCTTGGGTTCTAACCTGTTGCCT (site TATATGACTCC) | 0.036 |
| ATGCCAACTTGGGTTCTAACCTGTTGCCT (site ATGCCAACTAG) | 0.327 |
| ATGCCAACTTGGGTTCTAACCTGTTGCCT (site ATGCCCACTAG) | 0.059 |
| ATGCCAACTTGGGTTCTAACCTGTTGCCT (site ATGCCGACTAG) | 0.204 |
| ATGCCAACTTGGGTTCTAACCTGTTGCCT (site ATGCCTACTAG) | 0.00977 |
| ATGCCCTCTTGGGTTCTAACCTGTTGCCT (site ATGACCTCTAG) | 0.688 |
| ATGCCCTCTTGGGTTCTAACCTGTTGCCT (site ATGCCCTCTAG) | 2.07 |
| ATGCCCTCTTGGGTTCTAACCTGTTGCCT (site ATGGCCTCTAG) | 0.0962 |
| ATGCCCTCTTGGGTTCTAACCTGTTGCCT (site ATGTCCTCTAG) | 0.0521 |
| ATGCCTACTTGGGTTCTAACCTGTTGCCT (site ATGCCAACTAG) | 0.0174 |
| ATGCCTACTTGGGTTCTAACCTGTTGCCT (site ATGCCCACTAG) | 0.0532 |
| ATGCCTACTTGGGTTCTAACCTGTTGCCT (site ATGCCGACTAG) | 0.0715 |
| ATGCCTACTTGGGTTCTAACCTGTTGCCT (site ATGCCTACTAG) | 0.337 |
| ATGCCTCCTTGGGTTCTAACCTGTTGCTT (site ATGCCTCCTAA) | 0.165 |
| ATGCCTCCTTGGGTTCTAACCTGTTGCTT (site GAAGGAGCTCT) | 0.07 |
| ATGCGTTCTTGGGTTCTAACCTGTTGCCT (site AGGTGTTCTAG) | 0.203 |
| ATGCGTTCTTGGGTTCTAACCTGTTGCCT (site ATGCGTTCTAG) | 1.73 |
| ATGCTTGCTTGGGTTCTAACCTGTTGCCA (site ATGCTTGCTTG) | 0.187 |
| ATGCTTGCTTGGGTTCTAACCTGTTGCCA (site TGTGCAACTCA) | 0.299 |

| Sequence | recombinant barcode read abundance (log10) |
| --- | --- |
| ATGGATACTTGGGTTCTAACCTGTTGCCT (site ATGGATACTAG) | 2.26 |
| ATGGATACTTGGGTTCTAACCTGTTGCCT (site ATGTACACTAG) | 0.22 |
| ATGGATCCTTGGGTTCTAACCTGTTGCGT (site AGGGATCCTAC) | 0.758 |
| ATGGATCCTTGGGTTCTAACCTGTTGCGT (site ATGGATCCTAC) | 2.77 |
| ATGGCCTCTTGGGTTCTAACCTGTTGCCT (site ATGACCTCTAG) | 0.822 |
| ATGGCCTCTTGGGTTCTAACCTGTTGCCT (site ATGCCCTCTAG) | 0.0852 |
| ATGGCCTCTTGGGTTCTAACCTGTTGCCT (site ATGGCCTCTAG) | 2.2 |
| ATGGCCTCTTGGGTTCTAACCTGTTGCCT (site ATGTCCTCTAG) | 0.0804 |
| ATGGGCCCTTGGGTTCTAACCTGTTGCTA (site ATGGGCCCTAA) | 0.362 |
| ATGGGCCCTTGGGTTCTAACCTGTTGCTA (site ATGGGCCCTCA) | 1.17 |
| ATGGGCCCTTGGGTTCTAACCTGTTGCTA (site ATGGGCCCTGA) | 0.288 |
| ATGGGCCCTTGGGTTCTAACCTGTTGCTA (site ATGGGCCCTTA) | 2.17 |
| ATGGGCCCTTGGGTTCTAACCTGTTGCTT (site ATGGGCCCTAA) | 2.01 |
| ATGGGCCCTTGGGTTCTAACCTGTTGCTT (site ATGGGCCCTCA) | 0.00714 |
| ATGGGCCCTTGGGTTCTAACCTGTTGCTT (site ATGGGCCCTGA) | 0.0928 |
| ATGGGCCCTTGGGTTCTAACCTGTTGCTT (site ATGGGCCCTTA) | 0.243 |
| ATGGTACCTTGGGTTCTAACCTGTTGCTA (site ATGGTACCTTA) | 2.34 |
| ATGGTACCTTGGGTTCTAACCTGTTGCTA (site GATAACGCTAG) | 0.247 |
| ATGGTGACTTGGGTTCTAACCTGTTGCCT (site ATGGTGACTAG) | 1.21 |
| ATGGTGACTTGGGTTCTAACCTGTTGCCT (site ATGGTGCCTAG) | 0.296 |
